Results from patent publication US20070243254A1, “NOVEL DRUG COMPOSITIONS AND DOSAGE FORMS OF TOPIRAMATE” (priority 2002, published 2007).
Values after ≈ are worked out from the molar mass of the structure shown. Read-outs that look alike come from different tables or passages of the source.

Key:
[1] = equilibrium solubility of topiramate in de-ionized water and aqueous surfactant solutions; format: physicochemical; conditions: for solubility: de-ionized water
Protocol: As defined herein, the solubility of a pharmaceutical agent is determined by adding the pharmaceutical agent to stirred or agitated de-ionized water maintained in a constant temperature bath at a temperature of 37° C. until no more pharmaceutical agent dissolves. The resulting solution saturated with the pharmaceutical agent is then filtered, typically under pressure through a 0.8-micron Millipore filter, and the concentration of the pharmaceutical agent in the solution is measured by any appropriate analytical method including gravimetric, ultraviolet spectrophometry, chromatography, and the like. The solubility of the pharmaceutical agent is measured at equilibrium.
A drug composition of the present invention was prepared as follows. Aqueous solutions of five surfactants were prepared. The selected surfactants were four grades of ethylene oxide/propylene oxide/ethylene oxide (LUTROL grades F127, F87, F108, and F68) and PEG-40 stearate (MYRJ 52). Solutions were made at concentrations of 1, 5, and 15 weight percent. The aqueous surfactant blends solutions were chilled as necessary to promote complete dissolution of the surfactant prior to drug solubility studies.
The aqueous surfactant solutions were equilibrated to constant temperature in a 37° C. water bath. Then, neat topiramate drug was added slowly with stirring in approximately 10 mg increments to the surfactant solutions until no more drug dissolved. A control sample of drug dissolved in de-ionized water without surfactant was included for comparison purposes. The resulting saturated solutions of drug were filtered through 0.8 micron filters and analyzed for drug concentration by refractive index chromatography. The resulting solubility values were plotted as a function of both surfactant concentration and the hydrophilic-lipophilic balance value of each surfactant. FIG. 6 was constructed from the solubility values obtained and HLB data for each surfactant utilized.

[2] = cited from earlier work
[3] = cited from earlier work; remark: listed apart in the source

CC1(C)O[C@@H]2[C@@H](CO[C@@]3(COS(N)(=O)=O)OC(C)(C)O[C@@H]23)O1 [topiramate, 2,3:4,5-bis-O-(1-methylethylidene)-β-D-fructopyranose sulfamate]
solubility in water in presence of surfactant ([1]; LUTROL F127, F87, F108, F68, MYRJ 52 at 1, 5, 15 weight percent, 37° C.): increased by each surfactant
solubility ([1]; water, thermodynamic from solid, without surfactant, 37° C., read-out: solubility in de-ionized water): ~12 mg/mL (≈ 35.4 mM)
solubility ([1]; read-out: solubility of neat topiramate (range)): 9.8 to 13 mg/mL (≈ 28.9 to 38.3 mM)
solubility in organic solvents ([2]; acetone, dimethylsulfoxide, ethanol): soluble in acetone, dimethylsulfoxide and ethanol
solubility in alkaline solutions ([2]; alkaline solutions containing sodium hydroxide or sodium phosphate): soluble in alkaline solutions
solubility of topiramate in water ([2]; room temperature): about 9.8 mg/ml
dose proportionality of pharmacokinetics ([3]; in vivo): linear
effect of food on pharmacokinetics ([3]; in vivo): not significantly affected by food
excretion ([3]; in vivo): excreted largely through the urine
mean elimination half life ([3]; in vivo): about 21 hours
metabolism ([3]; in vivo): not extensively metabolized
time to peak plasma drug concentrations ([3]; oral, immediate release dosage form): approximately 2 hours
